Like-named read-outs stand apart in the source and are kept apart here.
Assays:
[1] = tested on: H1299 cells; experiment: Caspase activity (casp ACE assay), H1299; format: cell-based, human; details: five times the IC50
Description: (§1) In more detail: (A) Cells were treated with […] [IC50] of compound 2 or cisplatinum and collected at the time points indicated. Cell lysates were prepared, the caspase activity was determined using the casp ACE assay and values were plotted on a graph. (B) Cells were treated with 5 times [IC50] of compound 2 or cisplatinum and collected at the time points indicated. AGS cells were also incubated with compound 2 in the presence of a caspase inhibitor Z-VAD.fmk. Cell lysates were prepared, the caspase activity was determined using the casp ACE assay and values were plotted on a graph.
(§2) To characterise the apoptosis-inducing properties of bisarylsulfonamides caspase ⅓ activty was measured. AGS or H1299 cells were treated with a low concentration of compound 2 or cisplatin corresponding to twice the IC50 value (FIG. 6A). Morphological changes were detected in 10-20% of cells by 72 hours corresponding to an induction of caspase activity first detected at 48 hours, increasing by 72 hours. We also treated AGS and H1299 cells with higher concentrations corresponding to five times the IC50 (FIG. 6B). In this experiment we included a […], Z-VAD.fmk to determine the caspase responsible.

[2] = tested on: H1299; experiment: 72-h MTT cytotoxicity assay, H1299; format: cell-based; details: Homo sapiens
Procedure, shortened: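 Antiproliferative activity was measured on human tumour lines of differing genetic background: SJSA-1, a primitive multipotential bone sarcoma with wild-type p53 and overexpressed HDM2; H1299, a large cell lung carcinoma, p53 null with low HDM2; and AGS, a gastric adenocarcinoma carrying wild-type p53.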

[3] = tested on: key proteins in the HDM2 pathway; experiment: SDS-PAGE and immunoblotting of key proteins in the HDM2 pathway; format: cell-based, human
Description: Equal amounts of cell lysate were separated by SDS-PAGE and analysed by immunoblotting using the indicated antibodies. An estimation of the extent of cell rounding is indicated above each lane. […] (B) The effect of compound 2 on the levels of the cell cycle proteins in AGS cells (wild-type 53). […] Equal amounts of cell lysate were separated by SDS-PAGE and analysed by immunoblotting using the indicated antibodies. An estimation of the extent of cell rounding is indicated above each lane. (C) The effect of negative control compound (refer Example 10), compound 2, cisplatin, and anisomycin on the levels of key proteins in MCF7 cells. […] Cisplatinum and anisomycin (a transcription inhibitor) treatments were with 50 μM or 37 μM, respectively. Cells were harvested at various time points; afterwards lysates were prepared and separated by SDS-PAGE and analysed by immunoblotting. The proteins detected are indicated. The extent of rounded or floating cells and the percentage viable cells were assessed. […] Equal amounts of cell lysate were separated by SDS-PAGE and analysed by immunoblotting using a range of antibodies. An estimation of the extent of cell rounding is indicated above each lane. […] SJSA1 cells were treated with 5 times [IC50] of compound 2 and collected at the indicated time points. Equal amounts of cell lysate were separated by SDS-PAGE and analysed by immunoblotting using a range of antibodies. An estimation of the extent of cell rounding is indicated above each lane.
Many types of cellular stress converge on the p53 pathway and induce its activity. […] The biological effect of bisarylsufonamides on cellular level was studies using representative compounds (mainly compound 2) and number of cell lines with different HDM2 and p53 status. These were overexpressing Hdm2 (SJSA1—osteosarcoma), wild type p53 and normal levels of HDM2 (AGS—gastric adenocarcinoma, MCF7—breast adenocarcinoma), or p53 null, low levels of HDM2 (H1299—large cell lung carcinoma).
Cells were lysed and equal amounts were analysed by SDS-polyacrylamide gel electrophoresis (SDS-PAGE) and immunoblotting.

[4] = tested on: p53; experiment: p53 reporter gene assay (U2OS-derived luciferase reporter cell line); details: for Fold induction of luciferase activity: compared to basal luciferase activity, 16-h time point, at concentration of maximal induction; for Concentration (test compound concentration at which the p53 induction was maximal): p53 reporter, U2OS-derived cell line
[5] = tested on: AGS; experiment: Combination treatment with cisplatin or etoposide, MTT, AGS; format: cell-based, human
Description: (§3) It is well established that radiotherapy and most current forms of chemotherapy cause extensive genetic damage and induction of the p53-dependent apoptotic pathway, which determines the important role of this tumor suppressor protein in cancer therapy. HDM2, on the other hand, as a transcriptional product and negative regulator pf p53, would destabilise p53 and diminish its pro-apoptotic function. Inhibitors of the p53-HDM2 negative feedback loop (e.g. compounds disrupting the p53-HDM2 complex) are expected to synergise with cytotoxic agents for induction of p53 and subsequent apoptosis. […] Both chemotherapeutic agents were used in the concentration range of 100-0.19 μM.

[6] = tested on: HS27; experiment: 72-h MTT cytotoxicity assay, HS27; format: cell-based; details: Homo sapiens, HS27, Foreskin fibroblasts, read-out: Anti-proliferative activity, 72-h MTT IC50
Description: (§4) Representative bisarylsulfonamide compounds were tested on a panel of transformed and non-transformed human cell lines, using a standard 72-h MTT cytotoxicity assay [Haselsberger K et al, ibid].

[7] = tested on: MCF7 or H1299 cells; experiment: Cell cycle distribution, propidium iodide flow cytometry; format: cell-based, human; details: 5 times IC50
Description: Cells were stained with propidium iodide and the cell cycle position was determined using a flow cytometer.

[8] = tested on: AGS cells; experiment: Caspase activity (casp ACE assay), AGS; format: cell-based, human; details: five times the IC50, compared with cisplatin treatment
Description: as §1, §2

[9] = tested on: WI38; experiment: 72-h MTT cytotoxicity assay, WI38; format: cell-based; details: Homo sapiens, WI-38, 72 h; WI38, Lung fibroblasts; read-out: Anti-proliferative activity, 72-h MTT IC50
Description: as §4

[10] = tested on: E2F transcription factors; experiment: E2F reporter gene assay (A549-derived luciferase reporter cell line); format: cell-based; details: Homo sapiens
Procedure, shortened: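 A549-derived cell line stably carrying an E2F response element driving a luciferase reporter gene (Mercury Cell Cycle Profiling System cassette). Run the same way as the p53 reporter assay, with luciferase read-out.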

[11] = tested on: SJSA-1; experiment: Combination treatment with cisplatin or etoposide, MTT, SJSA-1; format: cell-based, human
Description: as §3

[12] = NCI-H1299, 72 h, H1299, Large cell lung carcinoma, Table 2, read-out: Anti-proliferative activity, 72-h MTT IC50
[13] = NCI-H1299, 72-h MTT, Table 1, read-out: IC50 Anti-proliferative effect on cell line H 1299
[14] = 2 added 6 hours before etoposide
[15] = 2 added prior to the treatment with cisplatin
[16] = Homo sapiens, MTT, 72 hours, Table 5, read-out: IC50, agent alone
[17] = after 3-h treatment with test compounds, read-out: IC50 E2F reporter, Non-synchronised cells
[18] = after 3-h treatment, synchronisation with 0.3 mM mimosine for 24 h, followed by wash-out, read-out: IC50 E2F reporter, Synchronised cells

Structure (SMILES)	IC50 [2, 12]	IC50 [2, 13]	Fold induction of luciferase activity [4]	Concentration (test compound concentration at which the p53 induction was maximal) [4]	IC50 [6]	IC50 [9]	IC50 [10, 17]	IC50 [10, 18]	other results
O=[N+]([O-])c1cc(S(=O)(=O)Nc2ccc(Cl)cc2)sc1Cl [Compound 2, 5-Chloro-4-nitrothiophene-2-sulfonic acid (4-chlorophenyl)-amide]	4.4 µM	5.1 ± 0.7 µM	231 fold	6 µM	17.3 µM	22.7 µM	23.2 ± 4 µM	–	caspase activity [1]: detected by four hours; IC50 ([2]; NCI-H1299, H1299, Example 9, read-out: anti-proliferative IC50 concentration determined for each cell line): 5 µM; HDM2 and E2F-1 protein levels ([3]; AGS, H1299, MCF7 or SJSA1 cells, five times the anti-proliferative IC50): rapid reduction in HDM2 and E2F-1 levels; JNK phosphorylation ([3]; MCF7 cells): transient induction in JNK phosphorylation; p38 MAPK pathway induction ([3]; MCF7 cells): no clear induction of the p38 MAPK pathway; p53 level and p53 phosphorylation at serine 15 ([3]; compound 2: AGS, H1299, MCF7 or SJSA1 cells, etoposide or cisplatinum: AGS or MCF7 cells): no induction of p53 nor p53 phosphorylation at serine 15; PARP cleavage / PARP levels ([3]; five times IC50, 85-kDa cleavage product marker for apoptosis): very rapid in H1299 cells but less so in AGS, MCF7 or SJSA1 cells; IC50 of etoposide, fold lower in cells pre-treated with 2 [5, 14]: 3.5 fold; potency increase of cisplatin [5, 15]: 18.5 fold; IC50 [5, 16]: 1.1 µM; cell cycle arrest [7]: no detectable arrest at any phase of the cell cycle; sub-G1 cells, indicative of apoptosis [7]: induced sub-G1 cells; caspase activity [8]: only weak caspase activity was induced by 24 hours; IC50 of etoposide, fold lower in cells pre-treated with 2 [11, 14]: 726 fold; potency increase of cisplatin [11, 15]: 357 fold; IC50 [11, 16]: 14 µM
O=[N+]([O-])c1cc(S(=O)(=O)Nc2ccc(F)cc2)sc1Cl [Compound 3, 5-Chloro-4-nitrothiophene-2-sulfonic acid (4-fluorophenyl)amide]	5.2 µM	5.7 ± 0.4 µM	200 fold	6 µM	15.2 µM	21.1 µM	28.8 ± 2.3 µM	69 ± 30 µM	–
O=[N+]([O-])c1cc(S(=O)(=O)Nc2ccc(C(F)(F)F)cc2)sc1Cl [Compound 6, 5-Chloro-4-nitrothiophene-2-sulfonic acid (4-trifluoromethylphenyl)amide]	4.9 µM	8.1 ± 1.3 µM	84 fold	5.5 µM	21.4 µM	30 µM	37.5 ± 12.9 µM	39 µM	–

Source: patent publication US20050215548A1 (Cyclacel Limited, priority 2002, published 2005)
